Usually mortality stands for the share of the test organisms that died.

This series deals with tobacco budworm (Heliothis virescens [Fabricius]). The series can be described thus: surface-treated diet test, insecticidal activity against tobacco budworm. Conditions: 0.25 millimoles of candidate insecticide on the surface of the diet, second instar larvae, five-day exposure. Further details: mortality: concentration or dose not given beside the values. It is filed as in vivo. An outline of the steps: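 Second-instar larvae (~5 mg) were held five days at 25° C and 60% RH on artificial diet whose surface carried dried compound (0.25 millimolar standard rate; DMSO serial dilutions for rate series, six replicates each). Readouts: mortality and weight inhibition relative to DMSO-treated controls.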

Setting [1] is: compared to total number of insects infested.
Setting [2] is: inhibition of insect weight relative to untreated controls.

As for `COc1ccc(C(c2ccc(OC(F)(F)F)cc2)C2(O)CC[N+]([O-])(Cc3ccc(Oc4ccccn4)cc3)CC2)cc1` (stereo not drawn) [Compound 338], the “Percent Mortality” value under setting [1] came to 100%. Moreover, the “Percent Growth Inhibition” value under setting [2] came to 100%.
For the compound `[O-][N+]1(Cc2ccc(Oc3ccccn3)cc2)CCC(O)(C(c2ccc(Br)cc2)c2ccc(OC(F)(F)F)cc2)CC1` (stereo not drawn) [Compound 339], the “Percent Mortality” value under setting [1] came to 100%. For the same compound, the “Percent Growth Inhibition” value under setting [2] is listed as 100%.
Turning to `Cc1ccc(C(c2ccc(OC(F)(F)F)cc2)C2(O)CC[N+]([O-])(Cc3ccc(Oc4ccccn4)cc3)CC2)cc1` (stereo not drawn) [Compound 340], the “Percent Mortality” value under setting [1] stood at 100%. The “Percent Growth Inhibition” value under setting [2] is reported as 100%.
Regarding `[O-][N+]1(Cc2ccc(C3OCCO3)cc2)CCC(O)(C(c2ccc(OC(F)(F)F)cc2)c2ccc(OC(F)(F)F)cc2)CC1` (stereo not drawn) [Compound 341], the “Percent Mortality” value under setting [1] is 100%. Besides, the “Percent Growth Inhibition” value under setting [2] came out at 100%.
Take `[O-][N+]1(Cc2ccc(C3OCCO3)cc2)CCC(O)(C(c2ccc(C(F)(F)F)cc2)c2ccc(C(F)(F)F)cc2)CC1` (stereo not drawn) [Compound 342]: under setting [1], the “Percent Mortality” value was 100%. For the same compound, the “Percent Growth Inhibition” value under setting [2] worked out at 100%.
For `[O-][N+]1(Cc2ccc(Oc3ccccn3)cc2)CCC(O)(C(c2ccc(OC(F)(F)F)cc2)c2ccc(C(F)(F)F)cc2)CC1` (stereo not drawn) [Compound 343], the “Percent Mortality” value under setting [1] was determined as 100%. Besides, under setting [2], the “Percent Growth Inhibition” value came to 100%.
On to `COCCON=Cc1ccc(C[N+]2([O-])CCC(O)(C(c3ccc(OC(F)(F)F)cc3)c3ccc(OC(F)(F)F)cc3)CC2)cc1` (stereo not drawn) [Compound 344], for which the “Percent Mortality” value under setting [1] is given as 100%. Besides, the “Percent Growth Inhibition” value under setting [2] amounted to 100%.
For `[O-][N+]1(Cc2ccc(Oc3ccccn3)cc2)CCC(O)(C(c2ccc(Cl)cc2)c2ccc(Cl)cc2)CC1` (stereo not drawn) [Compound 345], the “Percent Mortality” value under setting [1] is recorded as 100%. Moreover, the “Percent Growth Inhibition” value under setting [2] is 100%.
`[O-][N+]1(Cc2ccc(Oc3ccccn3)cc2)CCC(O)(C(c2ccc(F)cc2)c2ccc(OC(F)(F)F)cc2)CC1` (stereo not drawn) [Compound 346]: the “Percent Mortality” value under setting [1] came to 100%. For the same compound, the “Percent Growth Inhibition” value under setting [2] is 100%.
For `[O-][N+]1(Cc2ccc(Oc3ccccn3)cc2)CCC(O)(C(c2ccc(OC(F)F)cc2)c2ccc(OC(F)(F)F)cc2)CC1` (stereo not drawn) [Compound 347], the “Percent Mortality” value under setting [1] is recorded as 100%. In addition, the “Percent Growth Inhibition” value under setting [2] is given as 100%.
In the case of `Cc1cccnc1Oc1ccc(C[N+]2([O-])CCC(O)(C(c3ccc(OC(F)(F)F)cc3)c3ccc(OC(F)(F)F)cc3)CC2)cc1` (stereo not drawn) [Compound 349], the “Percent Mortality” value under setting [1] amounted to 100%. Also, the “Percent Growth Inhibition” value under setting [2] was determined as 100%.
For the compound `Cc1ccc(Oc2ccc(C[N+]3([O-])CCC(O)(C(c4ccc(OC(F)(F)F)cc4)c4ccc(OC(F)(F)F)cc4)CC3)cc2)nc1` (stereo not drawn) [Compound 350], the “Percent Mortality” value under setting [1] is 100%. The “Percent Growth Inhibition” value under setting [2] was 100%.
Take `CCOC(OCC)c1ccc(C[N+]2([O-])CCC(O)(C(c3ccc(OC(F)(F)F)cc3)c3ccc(OC(F)(F)F)cc3)CC2)cc1` (stereo not drawn) [Compound 351]: under setting [1], the “Percent Mortality” value amounted to 100%. The “Percent Growth Inhibition” value under setting [2] was found to be 100%.
With `N#CCON=Cc1ccc(C[N+]2([O-])CCC(O)(C(c3ccc(OC(F)(F)F)cc3)c3ccc(OC(F)(F)F)cc3)CC2)cc1` (stereo not drawn) [Compound 353], under setting [1], the “Percent Mortality” value is recorded as 100%. In addition, the “Percent Growth Inhibition” value under setting [2] is given as 100%.
With `Cc1cccc(Oc2ccc(C[N+]3([O-])CCC(O)(C(c4ccc(OC(F)(F)F)cc4)c4ccc(OC(F)(F)F)cc4)CC3)cc2)n1` (stereo not drawn) [Compound 354], the “Percent Mortality” value under setting [1] is listed as 100%. For the same compound, under setting [2], the “Percent Growth Inhibition” value was determined as 100%.
`CON=C(Cl)c1ccc(C[N+]2([O-])CCC(O)(C(c3ccc(OC(F)(F)F)cc3)c3ccc(OC(F)(F)F)cc3)CC2)cc1` (stereo not drawn) [Compound 355]: the “Percent Mortality” value under setting [1] stood at 100%. Further, under setting [2], the “Percent Growth Inhibition” value worked out at 100%.
Turning to `CCOC(=O)COc1ccc(C[N+]2([O-])CCC(O)(C(c3ccc(OC(F)(F)F)cc3)c3ccc(OC(F)(F)F)cc3)CC2)cc1` (stereo not drawn) [Compound 357], under setting [1], the “Percent Mortality” value was 0%. Also, the “Percent Growth Inhibition” value under setting [2] amounted to 100%.
`CC1(C)COC(c2ccc(C[N+]3([O-])CCC(O)(C(c4ccc(OC(F)(F)F)cc4)c4ccc(OC(F)(F)F)cc4)CC3)cc2)OC1` (stereo not drawn) [Compound 358]: the “Percent Mortality” value under setting [1] worked out at 100%. Also, the “Percent Growth Inhibition” value under setting [2] amounted to 100%.
With `N#Cc1cccnc1Oc1ccc(C[N+]2([O-])CCC(O)(C(c3ccc(OC(F)(F)F)cc3)c3ccc(OC(F)(F)F)cc3)CC2)cc1` (stereo not drawn) [Compound 359], the “Percent Mortality” value under setting [1] was determined as 100%. For the same compound, the “Percent Growth Inhibition” value under setting [2] is recorded as 100%.
`[O-][N+]1(Cc2ccc(C3OCCCO3)cc2)CCC(O)(C(c2ccc(OC(F)(F)F)cc2)c2ccc(OC(F)(F)F)cc2)CC1` (stereo not drawn) [Compound 370]: the “Percent Mortality” value under setting [1] turned out to be 100%. Also, the “Percent Growth Inhibition” value under setting [2] was found to be 100%.
As for `[O-][N+]1(Cc2ccc(OCC=C(Cl)Cl)cc2)CCC(O)(C(c2ccc(OC(F)(F)F)cc2)c2ccc(OC(F)(F)F)cc2)CC1` (stereo not drawn) [Compound 371], the “Percent Mortality” value under setting [1] amounted to 100%. For the same compound, the “Percent Growth Inhibition” value under setting [2] is 100%.
In the case of `[O-][N+]1(Cc2ccc(Oc3ccccc3Cl)cc2)CCC(O)(C(c2ccc(OC(F)(F)F)cc2)c2ccc(OC(F)(F)F)cc2)CC1` (stereo not drawn) [Compound 375], the “Percent Mortality” value under setting [1] was found to be 100%. Also, the “Percent Growth Inhibition” value under setting [2] is reported as 100%.
With `[O-][N+]1(Cc2ccc(C=NOCC(F)(F)F)cc2)CCC(O)(C(c2ccc(OC(F)(F)F)cc2)c2ccc(OC(F)(F)F)cc2)CC1` (stereo not drawn) [Compound 378], the “Percent Mortality” value under setting [1] worked out at 100%. For the same compound, the “Percent Growth Inhibition” value under setting [2] is 100%.
For `CC(C)Oc1ccc(C[N+]2([O-])CCC(O)(C(c3ccc(C(F)(F)F)cc3)c3ccc(C(F)(F)F)cc3)CC2)cc1` (stereo not drawn) [Compound 380], the “Percent Mortality” value under setting [1] is recorded as 100%. Under setting [2], the “Percent Growth Inhibition” value was 100%.
On to `[O-][N+]1(Cc2ccc(OCc3ccccc3)cc2)CCC(O)(C(c2ccc(OC(F)(F)F)cc2)c2ccc(OC(F)(F)F)cc2)CC1` (stereo not drawn) [Compound 381], for which the “Percent Mortality” value under setting [1] was 100%. Under setting [2], the “Percent Growth Inhibition” value turned out to be 100%.
For the compound `[O-][N+]1(Cc2ccc(OCC3CC3)cc2)CCC(O)(C(c2ccc(C(F)(F)F)cc2)c2ccc(C(F)(F)F)cc2)CC1` (stereo not drawn) [Compound 383], the “Percent Mortality” value under setting [1] amounted to 100%. Further, under setting [2], the “Percent Growth Inhibition” value is listed as 100%.
As to `[O-][N+]1(Cc2ccc(Oc3ccc(Cl)nn3)cc2)CCC(O)(C(c2ccc(C(F)(F)F)cc2)c2ccc(C(F)(F)F)cc2)CC1` (stereo not drawn) [Compound 384], the “Percent Mortality” value under setting [1] worked out at 100%. The “Percent Growth Inhibition” value under setting [2] was determined as 100%.
On to `COCCOc1ccc(C[N+]2([O-])CCC(O)(C(c3ccc(OC(F)(F)F)cc3)c3ccc(OC(F)(F)F)cc3)CC2)cc1` (stereo not drawn) [Compound 385, 4-{bis[4-(trifluoromethoxy)phenyl]methyl}-4-hydroxy-1-{[4-(2-methoxyethoxy)phenyl]methyl}piperidin-1-oxide], for which the mortality (Heliothis virescens, 120 h, compared to total number of insects infested, read-out: Percent Mortality) worked out at 100%. For the same compound, the pest or weed control at 0.25 mmol/well (Heliothis virescens, 120 h, inhibition of insect weight relative to untreated controls, read-out: Percent Growth Inhibition) was found to be 100%.
On to `CCCOC(=O)Nc1ccc(C[N+]2([O-])CCC(O)(C(c3ccc(OC(F)(F)F)cc3)c3ccc(OC(F)(F)F)cc3)CC2)cc1` (stereo not drawn) [Compound 387], for which, under setting [1], the “Percent Mortality” value stood at 100%. Besides, the “Percent Growth Inhibition” value under setting [2] is 100%.
On to `[O-][N+]1(Cc2ccc(C=NOCCF)cc2)CCC(O)(C(c2ccc(OC(F)(F)F)cc2)c2ccc(OC(F)(F)F)cc2)CC1` (stereo not drawn) [Compound 389], for which, under setting [1], the “Percent Mortality” value came to 100%. The “Percent Growth Inhibition” value under setting [2] is given as 100%.
Consider `CCCOC(=O)Nc1ccc(C[N+]2([O-])CCC(O)(C(c3ccc(C(F)(F)F)cc3)c3ccc(C(F)(F)F)cc3)CC2)cc1` (stereo not drawn) [Compound 390], for which the “Percent Mortality” value under setting [1] came to 100%. The “Percent Growth Inhibition” value under setting [2] came out at 100%.
In the case of `[O-][N+]1(Cc2ccc(Oc3ccccn3)cc2)CCC(O)(C(c2ccc(Cl)cc2)c2ccc(OC(F)(F)F)cc2)CC1` (stereo not drawn) [Compound 391], the “Percent Mortality” value under setting [1] stood at 100%. In addition, under setting [2], the “Percent Growth Inhibition” value stood at 100%.
For the compound `[O-][N+]1(Cc2ccc(OCC3CC3)cc2)CCC(O)(C(c2ccc(OC(F)(F)F)cc2)c2ccc(OC(F)(F)F)cc2)CC1` (stereo not drawn) [Compound 392], the “Percent Mortality” value under setting [1] is given as 100%. In addition, the “Percent Growth Inhibition” value under setting [2] is on record as 100%.
Take `[O-][N+]1(Cc2ccc(OCc3ccccc3)cc2)CCC(O)(C(c2ccc(C(F)(F)F)cc2)c2ccc(C(F)(F)F)cc2)CC1` (stereo not drawn) [Compound 393]: the “Percent Mortality” value under setting [1] is 100%. For the same compound, the “Percent Growth Inhibition” value under setting [2] is recorded as 100%.
Consider `[O-][N+]1(Cc2ccc(Oc3ncccc3Cl)cc2)CCC(O)(C(c2ccc(OC(F)(F)F)cc2)c2ccc(OC(F)(F)F)cc2)CC1` (stereo not drawn) [Compound 399], for which the “Percent Mortality” value under setting [1] is 100%. Under setting [2], the “Percent Growth Inhibition” value is 100%.
Turning to `[O-][N+]1(Cc2ccc(Oc3ncccn3)cc2)CCC(O)(C(c2ccc(Cl)cc2)c2ccc(OC(F)(F)F)cc2)CC1` (stereo not drawn) [Compound 402], the “Percent Mortality” value under setting [1] stood at 100%. Moreover, the “Percent Growth Inhibition” value under setting [2] was 100%.
For `O=C(Nc1ccc(C[N+]2([O-])CCC(O)(C(c3ccc(OC(F)(F)F)cc3)c3ccc(OC(F)(F)F)cc3)CC2)cc1)OCC1CC1` (stereo not drawn) [Compound 404], the “Percent Mortality” value under setting [1] came to 100%. The “Percent Growth Inhibition” value under setting [2] came out at 100%.
As for `CCON=Cc1ccc(C[N+]2([O-])CCC(O)(C(c3ccc(Cl)cc3)c3ccc(OC(F)(F)F)cc3)CC2)cc1` (stereo not drawn) [Compound 405], under setting [1], the “Percent Mortality” value was found to be 100%. In addition, the “Percent Growth Inhibition” value under setting [2] is given as 100%.
Take `CC(C)OC(=O)c1ccc(C[N+]2([O-])CCC(O)(C(c3ccc(C(F)(F)F)cc3)c3ccc(C(F)(F)F)cc3)CC2)cc1` (stereo not drawn) [Compound 407]: the “Percent Mortality” value under setting [1] amounted to 100%. In addition, the “Percent Growth Inhibition” value under setting [2] is recorded as 100%.

(Values after patent US8119563B2, “N-substituted azacycles” (FMC Corporation, priority 2003, dated 2012).)
